Results taken from US20080069849A1, “Novel Antimicrobial Peptides” (Dermagen AB, priority 2004, published 2008).
Read-outs that look alike come from different tables or passages of the source. Where a SMILES comes first, the peptide text is derived from it. Where no end group is shown, it is not given here. [ ]: non-standard residue; d: D form.

How the values were obtained:
Format in all cases: cell-based
erythrocytes = experiment: Hemolysis assay (Example 11); parameters: % Hemolysis Mean: dose or concentration left out as unconfirmed
Description: EDTA-blood was centrifuged at 800 g for 10 min, whereafter plasma and buffy coat were removed. The erythrocytes were washed three times and resuspended in 5% PBS, pH 7.4. The cells were then incubated with end-over-end rotation for 1 h at 37° C. in the presence of peptides ([…]). 2% Triton X-100 (Sigma-Aldrich) served as positive control. The samples were then centrifuged at 800 g for 10 min. The absorbance of hemoglobin release was measured at λ 540 nm and is in the plot expressed as % of TritonX-100 induced hemolysis.

[1] = tested on: Staphylococcus aureus ATCC29213; experiment: Radial diffusion assay (RDA), S. aureus ATCC29213; settings: zone of inhibition; Table 2, second generation PEPscreen
Description: (§1) Escherichia coli 37.4 isolate was originally obtained from a patient with a chronic venous ulcer, while Staphylococcus aureus isolate BD14312 was from a patient with atopic dermatitis. Staphylococcus aureus ATCC29213 and Candida albicans ATCC90028 were both obtained from the Clinical Bacteriology Department at Lund University hospital.
(§2) Essentially as described earlier (Lehrer et al., J Immunol Methods 137, 167-173, 1991, Andersson et al., Eur J Biochem 271, 1219-1226, 2004) bacteria were grown to mid-logarithmic phase in 10 ml of full-strength (3% w/v) trypticase soy broth (TSB) (Becton-Dickinson, Cockeysville, Md.). The microorganisms were then washed once with 10 mM Tris, pH 7.4.4×10^6 bacterial colony forming units were added to 15 ml of the underlay agarose gel, consisting of 0.03% (w/v) TSB, 1% (w/v) low electroendosmosis type (EEO) agarose (Sigma, St Louis Mo.) and 0.02% (v/v) Tween 20 (Sigma). The underlay was poured into a ø 144 mm petri dish. After agarose solidification, 4 mm-diameter wells were punched and 6 μl of test sample was added to each well. Plates were incubated at 37° C. for 3 hours to allow diffusion of the peptides. The underlay gel was then covered with 15 ml of molten overlay (6% TSB and 1% Low-EEO agarose in dH2O). Antimicrobial activity of a peptide is visualized as a zone of clearing around each well after 18-24 hours of incubation at 37° C.

Escherichia coli 37.4 = experiment: Radial diffusion assay (RDA), E. coli 37.4; settings: zone of inhibition; Table 2, second generation PEPscreen
Description: as §1, §2

Row | Compound | % Hemolysis Mean (erythrocytes; 1 h) | further results
1 | CNYIEELLRQLARATHKGLA [Peptide 151] | 1.626% | –
2 | CNYIEELLRQLAPASHKGLA [Peptide 148] | – | % Hemolysis Mean (erythrocytes): 1.454%; RDA (mm) S. aureus ATCC29213 Mean [1]: 0.99 mm; RDA (mm) E. coli 37.4 Mean (Escherichia coli 37.4): 2.900 mm
3 | Ac-CNYITELRRQHARASHLGLA-NH2 [Peptide 179] | 2.495% | RDA (mm) S. aureus ATCC29213 Mean [1]: 4.03 mm; RDA (mm) E. coli 37.4 Mean (Escherichia coli 37.4): 2.677 mm
4 | CNYITELLRQRARALKKGLA [Peptide 167] | 2.642% | –
5 | CC[C@@H](C)[C@@H](NC(=O)[C@@H](Cc1ccc(O)cc1)NC(=O)[C@@H](CC(N)=O)NC(=O)[C@H](N)CS)C(=O)N[C@@H](C(=O)N[C@H](CCC(=O)O)C(=O)N[C@H](CC(C)C)C(=O)N[C@H](CCCNC(=N)N)C(=O)N[C@H](CCCNC(=N)N)C(=O)N[C@H](CCC(N)=O)C(=O)N[C@H](Cc1c[nH]cn1)C(=O)N[C@H](C)C(=O)N[C@H](CCCNC(=N)N)C(=O)N[C@H](C)C(=O)N[C@H](CO)C(=O)N[C@H](Cc1c[nH]cn1)C(=O)N[C@H](CC(C)C)C(=O)NCC(=O)N[C@H](CC(C)C)C(=O)N[C@H](C)C(=O)O)[C@H](C)O [Peptide 182] (H-[dC][dN][dY][dI][dT][dE][dL][dR][dR][dQ][dH][dA][dR][dA][dS][dH][dL]G[dL][dA]-OH; N-terminus and C-terminus assumed) | 2.659% | –
6 | CNYITELLRQLARATHKGLA [Peptide 150] | 3.777% | –
7 | CNYIEELRRQWARALHKGLA [Peptide 175] | 1.824% | –
8 | CNYIEELLRQRARALHKGLA [Peptide 166] | 2.117% | –
9 | CNYIEELWRQLARALHKGLA [Peptide 176] | 2.771% | –
10 | CNYIEELLRQKARALHKGLA [Peptide 162] | 2.056% | –
11 | CC[C@@H](C)[C@@H](NC(=O)[C@@H](Cc1ccc(O)cc1)NC(=O)[C@@H](CC(N)=O)NC(=O)[C@H](N)CS)C(=O)N[C@@H](C(=O)N[C@H](CCC(=O)O)C(=O)N[C@H](CC(C)C)C(=O)N[C@H](CC(C)C)C(=O)N[C@H](CCCNC(=N)N)C(=O)N[C@H](CCC(N)=O)C(=O)N[C@H](CC(C)C)C(=O)N[C@H](C)C(=O)N[C@H](CCCNC(=N)N)C(=O)N[C@H](C)C(=O)N[C@H](CO)C(=O)N[C@H](CCCCN)C(=O)N[C@H](CCCCN)C(=O)NCC(=O)N[C@H](CC(C)C)C(=O)N[C@H](C)C(=O)O)[C@H](C)O [Peptide 183] (H-[dC][dN][dY][dI][dT][dE][dL][dL][dR][dQ][dL][dA][dR][dA][dS][dK][dK]G[dL][dA]-OH; N-terminus and C-terminus assumed) | 5.128% | –
12 | CNYIEELKRQLARALHKGLA [Peptide 145] | 2.495% | –
13 | CNYITELLRQLARASKKGLA [Peptide 39] | – | hemolytic activity (erythrocytes): low hemolytic activity
14 | CNYITELKRQLARALKKGLA [Peptide 144] | 3.597% | –
15 | CNYIEELLRQKARALKKGLA [Peptide 164] | 2.340% | –
16 | CNYITELRRQKLRLLKKGLA [Peptide 169] | 2.512% | –
17 | CNYITELLRQLARAKKKGLA [Peptide 160] | 2.512% | –
18 | CNYIEELLRQRARALKKGLA [Peptide 168] | 2.573% | –
19 | CKYITLLRRQLLRALKRGLR [Peptide 73] | – | hemolytic activity (erythrocytes): low hemolytic activity
20 | CNYITELRRQKLRLLHKGLA [Peptide 170] | 2.211% | –
21 | CNYIEELLRQLARASKKGLA [Peptide 149] | 1.506% | –
22 | CNYIKELLRQKLRASHLGLA [Peptide 171] | 2.383% | –
23 | CNYITELRRQLARALHKGLA [Peptide 140] | 5.145% | –

Row | Compound | % Hemolysis Mean (erythrocytes; 1 h) | further results
24 | CNYITELLRQKARALHKGLA [Peptide 161] | 1.902% | –
25 | CNYIEELLRQLARARKKGLA [Peptide 159] | 1.841% | –
26 | CNYITELLRQLARASHKGLA [Peptide 147] | 2.555% | –
27 | CNYITELKRQLARALHKGLA [Peptide 143] | 3.450% | –
28 | CNYIEELRRQLARAWHKGLA [Peptide 174] | 2.056% | –
29 | CNYIWELRRQLARALHKGLA [Peptide 177] | 3.175% | –
30 | CNYIEELKRQLARALKKGLA [Peptide 146] | 2.521% | –
31 | CNYITELLRQKARALKKGLA [Peptide 163] | 2.478% | –
32 | CNYITELLRQLARANKKGLA [Peptide 154] | 2.564% | –
33 | CNYIEELLRQLARATKKGLA [Peptide 153] | 1.755% | –
34 | CNYIEELRRQLARALHKWLA [Peptide 173] | 8.148% | –
35 | CNYITELLRQLARARKKGLA [Peptide 158] | 3.829% | –
36 | CC[C@@H](C)[C@@H](NC(=O)[C@@H](Cc1ccc(O)cc1)NC(=O)[C@@H](CC(N)=O)NC(=O)[C@H](N)CS)C(=O)N[C@H](CCC(=O)O)C(=O)N[C@H](CCC(=O)O)C(=O)N[C@H](CC(C)C)C(=O)N[C@H](CCCNC(=N)N)C(=O)N[C@H](CCCNC(=N)N)C(=O)N[C@H](CCC(N)=O)C(=O)N[C@H](CC(C)C)C(=O)N[C@H](C)C(=O)N[C@H](CCCNC(=N)N)C(=O)N[C@H](C)C(=O)N[C@H](CC(C)C)C(=O)N[C@H](Cc1c[nH]cn1)C(=O)N[C@H](CCCCN)C(=O)NCC(=O)N[C@H](CC(C)C)C(=O)N[C@H](C)C(=O)O [Peptide 184] (H-[dC][dN][dY][dI][dE][dE][dL][dR][dR][dQ][dL][dA][dR][dA][dL][dH][dK]G[dL][dA]-OH; N-terminus and C-terminus assumed) | 3.235% | –
37 | CNYITELRRQLARALKKGLA [Peptide 141] | 17.716% | –
38 | Ac-CNYIEELRRQLARALHKGLA-NH2 [Peptide 181] | 4.861% | RDA (mm) S. aureus ATCC29213 Mean [1]: 4.24 mm; RDA (mm) E. coli 37.4 Mean (Escherichia coli 37.4): 4.330 mm
39 | CNYITELLRQLARARHKGLA [Peptide 156] | 3.321% | –
40 | CNYIEELLRQLARARHKGLA [Peptide 157] | 1.282% | –
41 | CNYIEELRRQLARALHKGLA [Peptide 47] | 2.323% | hemolytic activity (erythrocytes): low hemolytic activity
42 | CNYITELLRQLARAQKKGLA [Peptide 155] | 5.817% | –
43 | CNYITELLRQRARALHKGLA [Peptide 165] | 2.659% | –
44 | CNYIEELRRQLARALKKGLA [Peptide 142] | 3.734% | –
45 | Ac-CNYITELLRQLARASKKGLA-NH2 [Peptide 180] | 5.447% | RDA (mm) S. aureus ATCC29213 Mean [1]: 0 mm; RDA (mm) E. coli 37.4 Mean (Escherichia coli 37.4): 5.933 mm
46 | CNYITELLRQLARATKKGLA [Peptide 152] | 3.984% | –
